Tests used:
hFAP (M39-A757) = hFAP (M39-A757) (Homo sapiens (Human), UniProt Q12884); test: hFAP binding assay (surface plasmon resonance); settings: SPR, 20° C., single cycle kinetics
[1] = target: Prolyl endopeptidase, Prolyl Oligopeptidase (hPREP) (Homo sapiens (Human), UniProt P48147); test: hPrep inhibition assay; assay type: biochemical; settings: hPREP 0.6 nM, Z-Gly-Pro-amino-methylcoumarin 50 μM; read-out: PREP IC50
Procedure: Compounds were tested in a biochemical inhibition assay using Prolyl endopeptidase, Prolyl Oligopeptidase (hPREP) enzyme at 0.6 nM FAC (R&D Systems, 4308-SE) and the substrate Z-Gly-Pro-amino-methylcoumarin (Bachem, I-1145) at 50 μM FAC. 384 Low volume black plates (Greiner #784076) were used. […] Plates were incubated for 15 min at rt in dark. 4 μL, 100 μM substrate solution (25 mM Tris HCl, 250 mM NaCl, 0.01% Triton X-100, 5 mM Glutathione, pH 7.5) was added to each well. Plates were centrifuged at 1000 rpm and incubated for 20 min at rt in dark. The plates were read on a PHERAstar® reader with excitation 340 nm and emission 460 nm. Data were analyzed in Genedata Screener®. IC50 values were determined by plotting % inhibition versus log compound concentration and using a one site dose response model.

Chain of Prolyl endopeptidase, Prolyl Oligopeptidase (hPREP) (P48147 whole entry): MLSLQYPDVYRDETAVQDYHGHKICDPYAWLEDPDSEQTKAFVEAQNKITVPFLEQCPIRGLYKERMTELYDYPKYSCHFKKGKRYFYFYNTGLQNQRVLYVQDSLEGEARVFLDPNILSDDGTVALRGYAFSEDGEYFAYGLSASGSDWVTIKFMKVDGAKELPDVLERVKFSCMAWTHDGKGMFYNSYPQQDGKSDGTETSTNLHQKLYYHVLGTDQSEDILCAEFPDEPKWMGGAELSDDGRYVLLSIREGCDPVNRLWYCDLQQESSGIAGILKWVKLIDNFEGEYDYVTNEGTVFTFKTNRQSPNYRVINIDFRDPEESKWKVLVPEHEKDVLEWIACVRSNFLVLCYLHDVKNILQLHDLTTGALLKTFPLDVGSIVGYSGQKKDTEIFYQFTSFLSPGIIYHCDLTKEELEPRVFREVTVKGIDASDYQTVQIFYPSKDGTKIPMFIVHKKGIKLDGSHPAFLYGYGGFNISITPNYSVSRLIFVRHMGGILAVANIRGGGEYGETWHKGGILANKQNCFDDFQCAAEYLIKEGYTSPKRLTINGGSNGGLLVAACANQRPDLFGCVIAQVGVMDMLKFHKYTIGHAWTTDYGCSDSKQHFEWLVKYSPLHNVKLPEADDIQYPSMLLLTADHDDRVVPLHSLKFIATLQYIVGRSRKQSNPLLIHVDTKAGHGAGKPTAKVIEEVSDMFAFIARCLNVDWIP
Chain of hFAP (M39-A757) (Q12884 39-757): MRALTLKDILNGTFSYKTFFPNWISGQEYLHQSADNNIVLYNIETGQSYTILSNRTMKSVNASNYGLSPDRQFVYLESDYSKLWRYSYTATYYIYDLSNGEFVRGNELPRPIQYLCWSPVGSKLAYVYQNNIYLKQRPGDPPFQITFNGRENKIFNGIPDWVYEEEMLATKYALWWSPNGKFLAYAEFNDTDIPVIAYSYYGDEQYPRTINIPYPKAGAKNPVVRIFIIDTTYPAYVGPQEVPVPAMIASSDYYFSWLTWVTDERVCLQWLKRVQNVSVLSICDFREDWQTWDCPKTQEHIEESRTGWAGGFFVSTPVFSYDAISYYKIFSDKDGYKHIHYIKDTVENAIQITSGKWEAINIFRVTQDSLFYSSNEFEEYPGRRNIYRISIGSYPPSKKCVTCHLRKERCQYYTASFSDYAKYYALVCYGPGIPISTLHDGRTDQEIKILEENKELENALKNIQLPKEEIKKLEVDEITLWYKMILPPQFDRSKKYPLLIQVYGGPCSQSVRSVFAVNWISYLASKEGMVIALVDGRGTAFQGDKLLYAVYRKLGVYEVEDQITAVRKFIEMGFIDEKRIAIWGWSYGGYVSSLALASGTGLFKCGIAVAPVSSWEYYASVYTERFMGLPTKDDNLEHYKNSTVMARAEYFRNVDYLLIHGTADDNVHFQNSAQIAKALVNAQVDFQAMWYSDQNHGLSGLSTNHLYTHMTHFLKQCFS

SMILES: N#C[C@@H]1CSCN1C(=O)CNC(=O)c1ccnc2ccc(N3CCC(F)(F)C3)cc12 [Example 47, (R)—N-(2-(4-Cyanothiazolidin-3-yl)-2-oxoethyl)-6-(3,3-difluoropyrrolidin-1-yl)quinoline-4-carboxamide]
- hFAP Binding assay k(off) (hFAP (M39-A757)): 0.00016 s⁻¹
- hFAP Binding assay k(on) (hFAP (M39-A757)): 5600000 M⁻¹ s⁻¹
- IC50 [1]: 270 nM

SMILES: CCOC1(C)CN(c2ccc3nccc(C(=O)NCC(=O)N4CSC[C@H]4C#N)c3c2)C1 [Example 152, (R)—N-(2-(4-Cyanothiazolidin-3-yl)-2-oxoethyl)-6-(3-ethoxy-3-methyl-azetidin-1-yl)quinoline-4-carboxamide]
- hFAP Binding assay k(off) (hFAP (M39-A757)): 0.000014 s⁻¹
- hFAP Binding assay k(on) (hFAP (M39-A757)): 1000000 M⁻¹ s⁻¹
- IC50 [1]: 690 nM

SMILES: C[C@@H]1COCCN1c1ccc2nccc(C(=O)NCC(=O)N3CSC[C@H]3C#N)c2c1 [Example 108, N-(2-((R)-4-Cyanothiazolidin-3-yl)-2-oxoethyl)-6-((R)-3-methyl-morpholino)quinoline-4-carboxamide]
- hFAP Binding assay k(off) (hFAP (M39-A757)): 0.000050 s⁻¹
- hFAP Binding assay k(on) (hFAP (M39-A757)): 1400000 M⁻¹ s⁻¹
- IC50 [1]: 1000 nM

SMILES: CC(=O)NCC1(C)CN(c2ccc3nccc(C(=O)NCC(=O)N4CSC[C@H]4C#N)c3c2)C1 [Example 181, (R)-6-(3-(Acetamidomethyl)-3-methylazetidin-1-yl)-N-(2-(4-cyano-thiazolidin-3-yl)-2-oxoethyl)quinoline-4-carboxamide]
- hFAP Binding assay k(off) (hFAP (M39-A757)): 0.000027 s⁻¹
- hFAP Binding assay k(on) (hFAP (M39-A757)): 180000 M⁻¹ s⁻¹
- IC50 [1]: 1600 nM

SMILES: C[C@H]1CN(c2ccc3nccc(C(=O)NCC(=O)N4CSC[C@H]4C#N)c3c2)C[C@H](C)O1 [Example 78, N-(2-((R)-4-Cyanothiazolidin-3-yl)-2-oxoethyl)-6-((2S,6S)-2,6-dimethyl-morpholino)quinoline-4-carboxamide]
- hFAP Binding assay k(off) (hFAP (M39-A757)): 0.00010 s⁻¹
- hFAP Binding assay k(on) (hFAP (M39-A757)): 880000 M⁻¹ s⁻¹
- IC50 [1]: 890 nM

SMILES: N#C[C@@H]1CSCN1C(=O)CNC(=O)c1ccnc2ccc(N3CCCC3=O)cc12 [Example 11, (R)—N-(2-(4-Cyanothiazolidin-3-yl)-2-oxoethyl)-6-(2-oxopyrrolidin-1-yl)-quinoline-4-carboxamide]
- IC50 [1]: 140 nM

SMILES: C[C@@H]1[C@@H](C)OCCN1c1ccc2nccc(C(=O)NCC(=O)N3CSC[C@H]3C#N)c2c1 [Example 83, N-(2-((R)-4-Cyanothiazolidin-3-yl)-2-oxoethyl)-6-((2R,3R)-2,3-dimethyl-morpholino)quinoline-4-carboxamide]
- hFAP Binding assay k(off) (hFAP (M39-A757)): 0.000064 s⁻¹
- hFAP Binding assay k(on) (hFAP (M39-A757)): 1700000 M⁻¹ s⁻¹
- IC50 [1]: 640 nM

SMILES: N#C[C@@H]1CSCN1C(=O)CNC(=O)c1ccnc2ccc(N3CC[C@@H](CO)C3)cc12 [Example 220, N-(2-((R)-4-Cyanothiazolidin-3-yl)-2-oxoethyl)-6-((R)-3-(hydroxymethyl)-pyrrolidin-1-yl)quinoline-4-carboxamide]
- hFAP Binding assay k(off) (hFAP (M39-A757)): 0.000050 s⁻¹
- hFAP Binding assay k(on) (hFAP (M39-A757)): 1600000 M⁻¹ s⁻¹
- IC50 [1]: 390 nM

SMILES: CC1(C)COCCN1c1ccc2nccc(C(=O)NCC(=O)N3CSC[C@H]3C#N)c2c1 [Example 107, (R)—N-(2-(4-Cyanothiazolidin-3-yl)-2-oxoethyl)-6-(3,3-dimethyl-morpholino)quinoline-4-carboxamide]
- hFAP Binding assay k(off) (hFAP (M39-A757)): 0.00016 s⁻¹
- hFAP Binding assay k(on) (hFAP (M39-A757)): 1900000 M⁻¹ s⁻¹
- IC50 [1]: 1100 nM

SMILES: COC[C@H]1COCCN1c1ccc2nccc(C(=O)NCC(=O)N3CSC[C@H]3C#N)c2c1 [Example 89, N-(2-((R)-4-Cyanothiazolidin-3-yl)-2-oxoethyl)-6-((S)-3-(methoxymethyl)-morpholino)quinoline-4-carboxamide]
- hFAP Binding assay k(off) (hFAP (M39-A757)): 0.00015 s⁻¹
- hFAP Binding assay k(on) (hFAP (M39-A757)): 3600000 M⁻¹ s⁻¹
- IC50 [1]: 1300 nM

SMILES: C[C@H]1COCCN1c1ccc2nccc(C(=O)NCC(=O)N3CSC[C@H]3C#N)c2c1 [Example 102, N-(2-((R)-4-Cyanothiazolidin-3-yl)-2-oxoethyl)-6-((S)-3-methyl-morpholino)quinoline-4-carboxamide]
- hFAP Binding assay k(off) (hFAP (M39-A757)): 0.000080 s⁻¹
- hFAP Binding assay k(on) (hFAP (M39-A757)): 2000000 M⁻¹ s⁻¹
- IC50 [1]: 680 nM

SMILES: C[C@@H]1CN(c2ccc3nccc(C(=O)NCC(=O)N4CSC[C@H]4C#N)c3c2)[C@H](C)CO1 [Example 87, N-(2-((R)-4-Cyanothiazolidin-3-yl)-2-oxoethyl)-6-((2R,5R)-2,5-dimethyl-morpholino)quinoline-4-carboxamide]
- hFAP Binding assay k(off) (hFAP (M39-A757)): 0.00011 s⁻¹
- hFAP Binding assay k(on) (hFAP (M39-A757)): 2800000 M⁻¹ s⁻¹
- IC50 [1]: 760 nM

SMILES: N#C[C@@H]1CSCN1C(=O)CNC(=O)c1ccnc2ccc(N3CCCOCC3)cc12 [Example 91, (R)—N-(2-(4-Cyanothiazolidin-3-yl)-2-oxoethyl)-6-(1,4-oxazepan-4-yl)-quinoline-4-carboxamide]
- hFAP Binding assay k(off) (hFAP (M39-A757)): 0.00021 s⁻¹
- hFAP Binding assay k(on) (hFAP (M39-A757)): 3200000 M⁻¹ s⁻¹
- IC50 [1]: 260 nM

SMILES: CC1(C)CN(c2ccc3nccc(C(=O)NCC(=O)N4CSC[C@H]4C#N)c3c2)C1 [Example 22, (R)—N-(2-(4-Cyanothiazolidin-3-yl)-2-oxoethyl)-6-(3,3-dimethylazetidin-1-yl)quinoline-4-carboxamide]
- hFAP Binding assay k(off) (hFAP (M39-A757)): 0.000047 s⁻¹
- hFAP Binding assay k(on) (hFAP (M39-A757)): 940000 M⁻¹ s⁻¹
- IC50 [1]: 470 nM

SMILES: N#C[C@@H]1CSCN1C(=O)CNC(=O)c1ccnc2ccc(N3CC4(CCO4)C3)cc12 [Example 153, (R)—N-(2-(4-Cyanothiazolidin-3-yl)-2-oxoethyl)-6-(1-oxa-6-azaspiro[3.3]heptan-6-yl)quinoline-4-carboxamide]
- hFAP Binding assay k(off) (hFAP (M39-A757)): 0.000085 s⁻¹
- hFAP Binding assay k(on) (hFAP (M39-A757)): 5300000 M⁻¹ s⁻¹
- IC50 [1]: 540 nM

SMILES: N#C[C@@H]1CSCN1C(=O)CNC(=O)c1ccnc2ccc(N3CC[C@H](CO)C3)cc12 [Example 221, N-(2-((R)-4-Cyanothiazolidin-3-yl)-2-oxoethyl)-6-((S)-3-(hydroxymethyl)-pyrrolidin-1-yl)quinoline-4-carboxamide]
- hFAP Binding assay k(off) (hFAP (M39-A757)): 0.000046 s⁻¹
- hFAP Binding assay k(on) (hFAP (M39-A757)): 8500000 M⁻¹ s⁻¹
- IC50 [1]: 410 nM

SMILES: Cc1ccc2c(C(=O)NCC(=O)N3CSC[C@H]3C#N)ccnc2c1 [B, (R)—N-(2-(4-cyanothiazolidin-3-yl)-2-oxoethyl)-7-methylquinoline-4-carboxamide, reference compound]
- IC50 [1]: 5.2 nM

SMILES: Cc1cc(C(=O)NCC(=O)N2CSC[C@H]2C#N)c2cc(N3CCOCC3)ccc2n1 [Example 109, (R)—N-(2-(4-Cyanothiazolidin-3-yl)-2-oxoethyl)-2-methyl-6-morpholino-quinoline-4-carboxamide]
- hFAP Binding assay k(off) (hFAP (M39-A757)): 0.0099 s⁻¹
- hFAP Binding assay k(on) (hFAP (M39-A757)): 1200000 M⁻¹ s⁻¹

SMILES: Cn1cc(-c2ccc3nccc(C(=O)NCC(=O)N4CSC[C@H]4C#N)c3c2)cn1 [Example 129, (R)—N-(2-(4-Cyanothiazolidin-3-yl)-2-oxoethyl)-6-(1-methyl-1H-pyrazol-4-yl)quinoline-4-carboxamide]
- hFAP Binding assay k(off) (hFAP (M39-A757)): 0.00012 s⁻¹
- hFAP Binding assay k(on) (hFAP (M39-A757)): 1400000 M⁻¹ s⁻¹
- IC50 [1]: 330 nM

SMILES: CCC1(F)CN(c2ccc3nccc(C(=O)NCC(=O)N4CSC[C@H]4C#N)c3c2)C1 [Example 138, (R)—N-(2-(4-Cyanothiazolidin-3-yl)-2-oxoethyl)-6-(3-ethyl-3-fluoro-azetidin-1-yl)quinoline-4-carboxamide]
- hFAP Binding assay k(off) (hFAP (M39-A757)): 0.000075 s⁻¹
- hFAP Binding assay k(on) (hFAP (M39-A757)): 2500000 M⁻¹ s⁻¹
- IC50 [1]: 470 nM

From US20230312550A1, “N-(2-(4-CYANOTHIAZOLIDIN-3-YL)-2-OXOETHYL)-QUINOLINE-4-CARBOXAMIDES” (AstraZeneca AB, priority 2020, published 2023)
